{"source": "patent US4439619A", "about": "“Fluorinated pentene diamine derivatives” (Merrell Toraude et Compagnie, priority 1980, dated 1984)", "key": {"[1]": {"tested_on": "Ornithine decarboxylase (ODC)", "assay": "ODC inhibitory activity in vivo (ODC activity in ventral prostate and thymus of rats)", "parameters": "species or system rats (Sprague-Dawley)", "method": "Male rats of the Sprague-Dawley strain (200-220 g body weight), purchased from Charles River, are given food and water ad libitum under a constant 12 hr light--12 hr dark lighting schedule. Drugs are injected intraperitoneally (dissolved in 0.9% saline) or are given by gavage (dissolved in water). Rats given saline or water serve as control. Five to six hours after drug administration, the animals are killed by decapitation and the ventral prostrate and thymus are excised rapidly and immediately processed. The tissues are homogenized with three volumes of 30 mM sodium phosphate buffer (pH 7.1) containing 0.1 mM EDTA, 0.25 M sucrose, 0.1 mM pyridoxal phosphate and 5 mM dithiothreitol. Ornithine decarboxylase activities are determined on a 1000 g supernatant of prostate homogenate and on a whole thymus homogenate, essentially as described by Ono et al. (Biochem. Biophys. Acta, 284, 285 (1972)).\nWhen tested according to the above-described procedure, representative compounds of Formula I gave the results shown in Table II below and in which the following abbreviations are used: […]"}, "[2]": {"molecular_target": "T1, Ornithine decarboxylase (ODC) (Rattus norvegicus, UniProt P09057)", "T1 construct": "prepared from the livers of rats which have been injected with thioacetamide; from tissue; host or cells: rat liver (thioacetamide-injected rats), purified about ten fold by acid treatment at pH 4.6", "T1 sequence (P09057 1-461)": "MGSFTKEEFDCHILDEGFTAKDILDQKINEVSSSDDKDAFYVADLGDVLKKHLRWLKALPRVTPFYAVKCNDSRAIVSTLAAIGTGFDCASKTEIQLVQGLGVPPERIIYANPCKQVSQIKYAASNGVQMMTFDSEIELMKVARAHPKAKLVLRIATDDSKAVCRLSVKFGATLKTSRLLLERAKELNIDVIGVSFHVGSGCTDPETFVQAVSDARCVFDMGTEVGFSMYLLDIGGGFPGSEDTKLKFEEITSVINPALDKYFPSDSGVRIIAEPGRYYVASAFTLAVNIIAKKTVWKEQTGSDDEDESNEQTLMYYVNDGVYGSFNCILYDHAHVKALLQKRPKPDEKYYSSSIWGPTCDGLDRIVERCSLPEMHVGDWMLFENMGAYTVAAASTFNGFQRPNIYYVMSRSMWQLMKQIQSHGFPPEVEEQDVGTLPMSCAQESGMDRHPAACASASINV", "assay": "Inhibition of ornithine decarboxylase (ODC) in vitro (partially purified ODC from rat liver, 14CO2 assay, Kitz and Wilson)", "type": "biochemical, rats", "parameters": "Half-life (t1/2): dose or concentration left out as unconfirmed", "conditions": "for τ50 (half-life, at infinite concentration of inhibitor) / Ki: 37°, Kitz and Wilson; for Ki: time-dependent inhibition, read-out: KI (apparent dissociation constant)", "method": "Ornithine decarboxylase (ODC) is prepared from the livers of rats which have been injected with thioacetamide (150 mg/kg of body weight) 18 hrs before sacrifice, and is purified about ten fold by acid treatment at pH 4.6 as described by Ono et al. (Biochem. Biophys. Acta 284, 285 (1972)). The stock solution of ODC is comprised of protein (16 mg/mL), sodium phosphate buffer (30 mM, pH 7.1), dithiothreitol (5 mM) and pyridoxal phosphate (0.1 mM). The specific activity of this stock solution is 0.12 nmol of CO2 /min per mg of protein. For a typical experiment 320 μl of this stock solution are mixed at time 0 with 80 μl of a solution of the inhibitor in water and incubated at 37°. At different times 50 μl aliquots are transferred into a 1-mL assay medium containing sodium phosphate (30 mM, pH 7.1), dithiothreitol (5 mM), pyridoxal phosphate (0.1 mM), L-ornithine ([…]), and DL-[1-^14 C] ornithine ([…], 58 Ci/mol, Amersham) in a closed vessel in which a filter paper moistered with 50 μl hyamine hydroxide (1 M) is fitted. The reaction is allowed to proceed for 60 min at 37° C. and then terminated by addition of 0.5 ml of 40% trichloroacetic acid. After an additional 30 min the CO2 absorbed on the filter paper is counted in a standard scintillation cocktail. KI (apparent dissociation constant) and .tau.50 (half-life, at infinite concentration of inhibitor are calculated according to the method of Kitz and Wilson (J. Biol. Chem., 237, 3245 (1962)).\nWhen tested according to the above-described procedure, representative compounds of Formula I gave the results shown in Table III below. The same abbreviations are used as in Table II and DFMDP is α-difluoromethyl-trans-β-dehydroputrescine."}, "[3]": {"assay": "Contragestational activity in mice (method of J. Fozard)", "type": "in vivo", "conditions": "80 mg/kg S.C. every six hours on the 8th day of gestation", "method": "The compounds of Formula I wherein Rc is --COR3 are also capable of interrupting embryogenesis in female mammals when administered systematically. Thus, the compounds are useful as contragestational agents in female mammals when it is desired to terminate early pregnancy. […] In general, an effective daily dose of the compounds of Formula I, wherein Rc is --COR3, for terminating pregnancy in warm-blooded mammals is from 10 mg/kg to 1 g/kg, preferably 10 to 100 mg/kg, administered after fertilisation during the period between Standard Stages 8-16 of gestation as defined by E. Wischi (See Tables 26-27, pages 82-92, Biology Data Book, Altman and Dittmer, Editors, Published by the Federation of American Societies for Experimental Biology, Washington, D.C., 1964). The period of treatment will vary with the species. In humans, the period of treatment will extend from the 6th-7th day of gestation of the 27th day."}, "L 1210 leukemia": {"tested_on": "L 1210 leukemia", "type": "in vivo, mice", "method": "(§1) When tested in mice against L 1210 leukemia and EMT6 solid tumors, -fluoromethyl-trans-dehydroputrescine (MFMDP) gave the following results:\nWhen injected i.p. (twice a day from day 1) at a dose of 50 mg/kg it increased by 20% the mean survival time of the mice."}, "[4]": {"assay": "Acute i.p. toxicity (LD50) in mice", "conditions": "mouse, in vivo, ip, acute i.p. injection", "text": "The LD50 is acute i.p. injection was between 1 and 3 g/kg in mice."}, "ODC": {"tested_on": "ODC", "assay": "ODC activity in the EMT6 tumor of treated mice", "type": "in vivo", "conditions": "all treatments (2% and 0.2% in water, 200 mg/kg i.p.)"}, "in vivo": {"assay": "in vivo", "type": "in vivo, mice", "conditions": "2% in drinking water or 200 mg/kg i.p. twice a day, after 10 days", "method": "When given in drinking water (2%) or injected i.p. (200 mg/kg twice a day) MFMDP induced the following toxic effects observed after 10 days of treatment: […]"}, "EMT6 solid tumors": {"tested_on": "EMT6 solid tumors", "assay": "Anti-neoplastic effect in mice inoculated with EMT6 solid sarcoma", "type": "in vivo", "text": "as §1\n2% MFMDP in water as sole drinking fluid starting 4 days after inoculation of the cells, inhibited by 60% to 70% the growth of the tumor at day 17. When given at 0.2% in water, it inhibited by 25% tumor growth."}, "[5]": {"tested_on": "carcinoma of the bladder, esophagus, lung, pancreas, colon, kidney, breast and prostate, oat cell carcinoma, adenocarcinoma, lymphoma, hepatoma, melanoma …", "conditions": "intravenously once or twice a week; 65 treated patients; cited from earlier work"}}, "data": [{"smiles": "NC/C=C/C(N)(C(=O)O)C(F)F", "note": "(centres unmarked) [DFMDO, 2-Difluoromethyl-2,5-diamino-3-(E)-penten-1-oic acid]", "values": [{"measurement": "ODC activity, ventral prostate", "setting": "[1]; 50 mg/kg gavage", "value": 119, "unit": "% CONTROL"}, {"measurement": "Half-life (t1/2)", "setting": "[2]", "value": 10.0, "unit": "min"}, {"measurement": "τ50 (half-life, at infinite concentration of inhibitor)", "setting": "[2]", "value": 2.5, "unit": "min"}, {"measurement": "Ki", "setting": "[2]", "value": 30, "unit": "µM"}]}, {"smiles": "NC/C=C/C(N)C(F)F", "note": "(centres unmarked) [DFMDP, 2,2-Difluoro-2,5-diamino-3-(E)-pentene]", "values": [{"measurement": "Half-life (t1/2)", "setting": "[2]", "value": 5, "unit": "min"}, {"measurement": "τ50 (half-life, at infinite concentration of inhibitor)", "setting": "[2]", "value": 0.7, "unit": "min"}, {"measurement": "Ki", "setting": "[2]", "value": 60, "unit": "µM"}]}, {"smiles": "NC/C=C/C(N)(CF)C(=O)O", "note": "(centres unmarked) [MFMDO, 2-Fluoromethyl-2,5-diamino-3-(E)-penten-1-oic acid]", "values": [{"measurement": "inhibition of gestation (number of viable feti per gravid female vs controls)", "setting": "[3]", "value": "inhibited gestation"}, {"measurement": "ODC activity, ventral prostate", "setting": "[1]; 50 mg/kg I.P.", "value": 18, "unit": "% CONTROL"}, {"measurement": "ODC activity, ventral prostate", "setting": "[1]; 50 mg/kg gavage", "value": 36, "unit": "% CONTROL"}, {"measurement": "Half-life (t1/2)", "setting": "[2]", "value": 3.1, "unit": "min"}, {"measurement": "τ50 (half-life, at infinite concentration of inhibitor)", "setting": "[2]", "value": 2.7, "unit": "min"}, {"measurement": "Ki", "setting": "[2]", "value": 2.8, "unit": "µM"}]}, {"smiles": "NC/C=C/C(N)CF", "note": "(centres unmarked) [MFMDP, 1-Fluoro-2,5-diamino-3-(E)-pentene]", "values": [{"measurement": "increase of mean survival time", "setting": "L 1210 leukemia; 50 mg/kg i.p. twice a day from day 1", "value": 20, "unit": "%"}, {"measurement": "prolongation of survival", "setting": "L 1210 leukemia; 0.2% in water as sole drinking fluid from day 1 after inoculation", "value": "did not prolong the survival of the mice"}, {"measurement": "increased survival", "setting": "L 1210 leukemia; 200 mg/kg i.p.", "value": "no increased survival could be observed"}, {"measurement": "toxicity", "setting": "L 1210 leukemia; 200 mg/kg i.p., L 1210 mice", "value": "toxic"}, {"measurement": "LD50", "setting": "[4]", "value": "1000 to 3000", "unit": "mg/kg"}, {"measurement": "ODC activity in the tumor", "setting": "ODC", "value": "markedly inhibited in all cases"}, {"measurement": "decrease in body weight", "setting": "in vivo", "value": 25, "unit": "%"}, {"measurement": "decrease in water intake", "setting": "in vivo", "value": "30-40%"}, {"measurement": "drop in blood leukocytes", "setting": "in vivo", "value": 50, "unit": "%"}, {"measurement": "mortality at 240 h", "setting": "in vivo; mouse, in vivo, read-out: animals dead", "value": 15, "unit": "%"}, {"measurement": "ODC activity, thymus", "setting": "[1]; 25 mg/kg I.P.", "value": 24, "unit": "% CONTROL"}, {"measurement": "ODC activity, ventral prostate", "setting": "[1]; 25 mg/kg gavage", "value": 12, "unit": "% CONTROL"}, {"measurement": "Half-life (t1/2)", "setting": "[2]", "value": 0.9, "unit": "min"}, {"measurement": "τ50 (half-life, at infinite concentration of inhibitor)", "setting": "[2]", "value": 0.2, "unit": "min"}, {"measurement": "Ki", "setting": "[2]", "value": 42, "unit": "µM"}, {"measurement": "inhibition of tumor growth", "setting": "EMT6 solid tumors; 0.2% in water", "value": 25, "unit": "%"}, {"measurement": "inhibition of tumor growth", "setting": "EMT6 solid tumors; 200 mg/kg i.p. twice a day starting 4 days after inoculation, day 13", "value": 50, "unit": "%"}]}, {"smiles": "CC(C=NNC(=N)N)=NNC(=N)N", "note": "[MGBG, methylglyoxal bis(guanylhydrazone)]", "values": [{"measurement": "complete disappearance of the disease", "setting": "[5]", "value": "complete disappearance of the disease in two of the 65 treated patients"}, {"measurement": "regression of the tumor", "setting": "[5]", "value": "measurable regression of the tumor in many of the patients treated"}]}]}
